pEC50: −log10 of the molar value.
Legend:
Type in all cases: cell-based, human
NCI-H740 = experiment: ATP luminescence proliferation assay, NCI-H740; conditions: H740, 72 h incubation
Experimental: This example generally describes the procedures used to assay the antiproliferative activity of compounds of this invention or their conjugates. Human tumor cell lines were obtained from the American Type Culture Collection (ATCC), P.O. Box 1549, Manassas, Va. 20108, USA, and cultured according to instruction from the ATCC. Cells were seeded at 1.0×10^3 or 1.0×10^4 cells/well in 96-well plates for 3 h for ATP assays or ^3H thymidine assays, respectively. 1:3 serial dilutions of free (unconjugated) compounds or their conjugates were added to the wells. Plates were allowed to incubate for 24 to 72 h. The ^3H thymidine plates were pulsed with 1.0 μCi of ^3H-thymidine per well for the last 24 hours of the total incubation period, harvested, and read on a Top Count Scintillation Counter (Packard Instruments, Meriden, Conn.). ATP levels in the ATP plates were measured using the […]-GLO® Luminescent Cell Viability kit following the manufacturer's manual and read on a GLOMAX® 20/20 luminometer (both from Promega, Madison, Wis., USA). The EC50 values—the concentration at which an agent inhibits or reduces cell proliferation by 50% —were determined using PRISM™ software, version 4.0 (GraphPad Software, La Jolla, Calif., USA). […]
(§1) Table 3 provides the data for the ATP luminescence proliferation assays, with an incubation period of 48, 72, or 96 h, as noted.

RPMI-8226 = experiment: ATP luminescence proliferation assay, RPMI-8226; conditions: ATP luminescence, RPMI-8226, 72 h incubation; read-out: EC50 RPMI-8226 (72 h)
Experimental: (§2) This example generally describes the procedures used to assay the antiproliferative activity of compounds of this invention or their conjugates. Human tumor cell lines were obtained from the American Type Culture Collection (ATCC), P.O. Box 1549, Manassas, Va. 20108, USA, and cultured according to instruction from the ATCC. Cells were seeded at 1.0×10^3 or 1.0×10^4 cells/well in 96-well plates for 3 h for ATP assays or ^3H thymidine assays, respectively. 1:3 serial dilutions of free (unconjugated) compounds or their conjugates were added to the wells. Plates were allowed to incubate for 24 to 72 h. The ^3H thymidine plates were pulsed with 1.0 μCi of ^3H-thymidine per well for the last 24 hours of the total incubation period, harvested, and read on a Top Count Scintillation Counter (Packard Instruments, Meriden, Conn.). ATP levels in the ATP plates were measured using the […]-GLO® Luminescent Cell Viability kit following the manufacturer's manual and read on a GLOMAX® 20/20 luminometer (both from Promega, Madison, Wis., USA). The EC50 values—the concentration at which an agent inhibits or reduces cell proliferation by 50% —were determined using PRISM™ software, version 4.0 (GraphPad Software, La Jolla, Calif., USA).
(§3) Using the ^3H thymidine or the ATP luminescence assay, or both, the activities of compounds of this invention were assayed against the following cancer cell lines: HCT-15 (colorectal cancer, multi-drug resistant (MDR)); Hep3B (liver cancer); LNCaP (prostate cancer, androgen receptor positive (AR^+)); MDA-MB-231 (breast cancer, estrogen receptor, progesterone receptor, and Her2 negative (triple negative)); A2058 (melanoma); U-87 MG (glioblastoma); NCI-H460 (NSCLC); A549 (NSCLC); HPAC (pancreatic cancer, primary); PC3 (prostate cancer, AR); BT474 (breast cancer, Her2 highly positive (Her2hi)); SKOV3 (ovarian cancer, Her2hi); 786-O (renal cancer); UO-31 (renal cancer, MDR); NCI-H740 (SCLC); DMS53 (SCLC); SK-BR3 (breast cancer, Her2hi); ZR-75 (breast cancer, estrogen receptor positive); OVCAR3 (ovarian cancer); HL-60 (APL); OVCAR8/Adr (ovarian cancer, MDR); CEM-Cl (ALL); Nomo-1 (AML); RPMI-8226 (MM)); Raji (lymphoma); SW-480 (colorectal cancer, metastatic); SW-620 (colorectal cancer); and H226 (lung cancer). (Not all compounds were assayed against all cell lines.)
as §1

LNCaP = experiment: ATP luminescence proliferation assay, LNCaP; conditions: ATP luminescence, 72 h incubation, read-out: EC50 LNCaP (72 h)
Experimental: as §2, §3, §1

A549 [1] = experiment: 3H thymidine proliferation assay, A549; conditions: 3H thymidine method, 72 h incubation; read-out: EC50, A549
In short: (§4)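 Cells seeded at 1.0×10^4 cells/well for 3 h, then exposed to 1:3 serial dilutions of free compounds or conjugates for 72 h. 1.0 μCi ^3H-thymidine per well was added for the last 24 h, and incorporation was read by scintillation counting. EC50 is the concentration reducing proliferation by 50%.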

SK-BR3 = experiment: ATP luminescence proliferation assay, SK-BR3; conditions: ATP luminescence, SK-BR3, 72 h incubation; read-out: EC50 SK-BR3 (72 h)
Experimental: as §2, §3, §1

Raji = experiment: 3H thymidine proliferation assay, Raji; conditions: 3H thymidine method, 72 h incubation; read-out: EC50, Raji
In short: as §4

NCI-H460 = experiment: 3H thymidine proliferation assay, NCI-H460; conditions: 3H thymidine method, 72 h incubation; read-out: EC50, NCI-H460
In short: as §4

ZR-75 = experiment: ATP luminescence proliferation assay, ZR-75; conditions: ATP luminescence, ZR-75, 72 h incubation; read-out: EC50 ZR-75 (72 h)
Experimental: as §2, §3, §1

PC3 = experiment: 3H thymidine proliferation assay, PC3; conditions: 3H thymidine method, 72 h incubation; read-out: EC50, PC3
In short: as §4

A2058 = experiment: ATP luminescence proliferation assay, A2058; conditions: ATP luminescence, A2058, 72 h incubation; read-out: EC50 A2058 (72 h)
Experimental: as §2, §3, §1

DMS53 = experiment: ATP luminescence proliferation assay, DMS53; conditions: ATP luminescence, DMS53, 72 h incubation; read-out: EC50 DMS53 (72 h)
Experimental: as §2, §3, §1

MDA-MB-231 = experiment: ATP luminescence proliferation assay, MDA-MB-231; conditions: ATP luminescence, MDA-MB-231, 72 h incubation; read-out: EC50 MDA-MB-231 (72 h)
Experimental: as §2, §3, §1

A549 [2] = experiment: ATP luminescence proliferation assay, A549; conditions: ATP luminescence, A549, 48 h incubation; read-out: EC50 A549 (48 h)
Experimental: as §2, §3, §1

**Q.** With `CC[C@H](C)[C@H](NC(=O)[C@H]1CCCCN1C)C(=O)N(COC(=O)CC(C)C)[C@H](C[C@@H](OC(C)=O)c1nc(C(=O)N[C@@H](Cc2ccccc2)C[C@H](C)C(=O)O)cs1)C(C)C` [Tub D, tubulysin D, reference compound] as the compound, how does the pEC50 (NCI-H740) read?
**A.** The pEC50 was 10.66.

**Q.** And the pEC50 (RPMI-8226)?
**A.** The pEC50 was 11.29.

**Q.** And the pEC50 (LNCaP)?
**A.** The pEC50 was 10.03.

**Q.** And the pEC50 (A549 [1])?
**A.** The pEC50 was 10.85.

**Q.** And the pEC50 (SK-BR3)?
**A.** The pEC50 was 10.60.

**Q.** And the pEC50 (Raji)?
**A.** The pEC50 was 10.89.

**Q.** And the pEC50 (NCI-H460)?
**A.** The pEC50 was 10.49.

**Q.** And the pEC50 (ZR-75)?
**A.** The pEC50 was 10.47.

**Q.** And the pEC50 (PC3)?
**A.** The pEC50 was 10.42.

**Q.** And the pEC50 (A2058)?
**A.** Its pEC50 is 11.19.

**Q.** What about the pEC50 (DMS53) of the same compound?
**A.** The pEC50 was 10.16.

**Q.** And the pEC50 (MDA-MB-231)?
**A.** The pEC50 was 10.33.

**Q.** What about the pEC50 (A549 [2]) of the same compound?
**A.** Its pEC50 is 10.70.

From patent US20130204033A1, “ANTIPROLIFERATIVE COMPOUNDS, CONJUGATES THEREOF, METHODS THEREFOR, AND USES THEREOF” (Medarex, Inc., priority 2009, published 2013)
